Assays:
[1] = log P by reversed-phase HPLC (C 18), acidic range; format: physicochemical; conditions: marked a): acidic range
Procedure: Temperature: 43° C. (a) Mobile phases for the determination in the acidic range: 0.1% aqueous phosphoric acid, acetonitrile; linear gradient from 10% acetonitrile to 90% acetonitrile—the corresponding measurement results are marked ^a) in Table 1.

weeds = assay: Pre-emergence test, activity against weeds; format: in vivo; conditions: soil sprayed 24 hours after sowing, rated after three weeks
Source text: Solvent: 5 parts by weight of acetone
Seeds of the test plants are sown in normal soil.

[2] = 0.1% aqueous phosphoric acid, acetonitrile, HPLC reversed-phase column (C 18), 43° C.
[3] = 0.1% aqueous phosphoric acid/acetonitrile gradient, HPLC C 18, 43° C.

| Compound | logP [1, 3] | also measured |
| --- | --- | --- |
| CON(C)C(=O)Nc1c(Cl)ccc(C(=O)C2=C(O)CC(C)CC2=O)c1Cl (racemic) [Example 3-1] | – | logP [1, 2]: (I-2) logP = 2.33^a) |
| CC1CC(=O)C(C(=O)c2ccc(Cl)c(NC(=O)N3CCCO3)c2Cl)=C(O)C1 (racemic) [Example 3-61] | – | logP [1, 2]: (I-2) logP = 2.25^a) |
| CC1CC(=O)C(C(=O)c2ccc(Cl)c(NC(=O)N3CCCCO3)c2Cl)=C(O)C1 (racemic) [Example 3-69] | – | logP [1, 2]: (I-2) logP = 2.52^a) |
| CCN1CCN(C(=O)Nc2c(Cl)ccc(C(=O)C3=C(O)CCCC3=O)c2Cl)C1=O [Example 1-2] | (I-2) logP = 2.33^a) | activity against weeds (weeds): strong activity |
| CON(C)C(=O)Nc1c(Cl)ccc(C(=O)C2=C(O)CCCC2=O)c1Cl [Example 1-3] | (I-2) logP = 1.97^a) | activity against weeds (weeds): strong activity |
| CN1CCCN(C(=O)Nc2c(Cl)ccc(C(=O)C3=C(O)CCCC3=O)c2Cl)C1=O [Example 1-4] | (I-2) logP = 2.33^a) | activity against weeds (weeds): strong activity |
| O=C1CCCC(O)=C1C(=O)c1ccc(Cl)c(NC(=O)N2CCOCC2)c1Cl [Example 1-5] | (I-2) logP = 1.60^a) | activity against weeds (weeds): strong activity |
| CN(C)NC(=O)Nc1c(Cl)ccc(C(=O)C2=C(O)CCCC2=O)c1Cl [Example 1-6] | (I-2) logP = 1.81^a) | activity against weeds (weeds): strong activity |
| CCN(CC)C(=O)Nc1c(Cl)ccc(C(=O)C2=C(O)CCCC2=O)c1Cl [Example 1-7] | (I-2) logP = 2.21^a) | – |
| CNC(=O)Nc1c(Cl)ccc(C(=O)C2=C(O)CCCC2=O)c1Cl [Example 1-8] | (I-2) logP = 1.46^a) | – |
| CCNC(=O)Nc1c(Cl)ccc(C(=O)C2=C(O)CCCC2=O)c1Cl [Example 1-9] | (I-2) logP = 1.70^a) | – |
| CN(C)C(=O)Nc1c(Cl)ccc(C(=O)C2=C(O)CCCC2=O)c1Cl [Example 1-10] | (I-2) logP = 1.64^a) | – |
| CC(C)NC(=O)Nc1c(Cl)ccc(C(=O)C2=C(O)CCCC2=O)c1Cl [Example 1-12] | (I-2) logP = 1.99^a) | – |
| O=C(Nc1c(Cl)ccc(C(=O)C2=C(O)CCCC2=O)c1Cl)NC1CC1 [Example 1-13] | (I-2) logP = 1.77^a) | – |
| O=C1CCCC(O)=C1C(=O)c1ccc(Cl)c(NC(=O)N2CCCC2)c1Cl [Example 1-16] | (I-2) logP = 1.90^a) | – |
| CCN1CCCN(C(=O)Nc2c(Cl)ccc(C(=O)C3=C(O)CCCC3=O)c2Cl)C1=O [Example 1-23] | (I-2) logP = 2.65^a) | – |
| CC(C)N1CCCN(C(=O)Nc2c(Cl)ccc(C(=O)C3=C(O)CCCC3=O)c2Cl)C1=O [Example 1-25] | (I-2) logP = 2.98^a) | – |
| O=C(NCC1CCCO1)Nc1c(Cl)ccc(C(=O)C2=C(O)CCCC2=O)c1Cl (centres unmarked) [Example 1-33] | (I-2) logP = 1.81^a) | – |
| COC(CNC(=O)Nc1c(Cl)ccc(C(=O)C2=C(O)CCCC2=O)c1Cl)OC [Example 1-35] | (I-2) logP = 1.72^a) | – |
| O=C(Nc1nnc(C(F)(F)F)s1)Nc1c(Cl)ccc(C(=O)C2=C(O)CCCC2=O)c1Cl [Example 1-40] | (I-2) logP = 2.78^a) | – |
| CN1CCN(C(=O)Nc2cc(C(F)(F)F)ccc2C(=O)C2=C(O)CCCC2=O)C1=O [Example 1-100] | (I-1) logP = 2.57^a) | – |
| O=C(Nc1c(Cl)ccc(C(=O)C2=C(O)CCCC2=O)c1Cl)NN1CCCC1 [Example 1-101] | (I-2) logP = 1.94^a) | – |
| O=C1CCCC(O)=C1C(=O)c1ccc(Cl)c(NC(=O)N2CCCN(C3CCCCC3)C2=O)c1Cl [Example 1-103] | (I-2) logP = 3.86^a) | – |

| Compound | logP [1, 3] | also measured |
| --- | --- | --- |
| CN1CCN(C(=O)N(C)c2cc(C(F)(F)F)ccc2C(=O)C2=C(O)CCCC2=O)C1=O [Example 1-104] | (I-1) logP = 2.04^a) | – |
| O=C1CCCC(O)=C1C(=O)c1ccc(Cl)c(NC(=O)N2CCCCC2)c1Cl [Example 1-105] | (I-2) logP = 2.26^a) | – |
| NC(=O)Nc1c(Cl)ccc(C(=O)C2=C(O)CCCC2=O)c1Cl [Example 1-106] | (I-2) logP = 1.29^a) | – |
| CCCNC(=O)Nc1c(Cl)ccc(C(=O)C2=C(O)CCCC2=O)c1Cl [Example 1-107] | (I-2) logP = 1.98^a) | – |
| CONC(=O)Nc1c(Cl)ccc(C(=O)C2=C(O)CCCC2=O)c1Cl [Example 1-108] | (I-2) logP = 1.58^a) | – |
| CCCN(CCC)C(=O)Nc1c(Cl)ccc(C(=O)C2=C(O)CCCC2=O)c1Cl [Example 1-109] | (I-2) logP = 2.95^a) | – |
| COc1cc(NC(=O)N2CCN(C)C2=O)ccc1C(=O)C1=C(O)CCCC1=O [Example 1-110] | (I-3) logP = 1.93^a) | – |
| O=C1CCCC(O)=C1C(=O)c1ccc(Cl)c(NC(=O)c2cccs2)c1Cl [Example 1-111] | (I-2) logP = 2.34^a) | – |
| COCCN(C)C(=O)Nc1c(Cl)ccc(C(=O)C2=C(O)CCCC2=O)c1Cl [Example 1-132] | (I-2) logP = 2.04^a) | – |
| COCCN(CCOC)C(=O)Nc1c(Cl)ccc(C(=O)C2=C(O)CCCC2=O)c1Cl [Example 1-134] | (I-2) logP = 2.40^a) | – |
| CCONC(=O)Nc1c(Cl)ccc(C(=O)C2=C(O)CCCC2=O)c1Cl [Example 1-136] | (I-2) logP = 1.88^a) | – |
| O=C(NCc1ccccc1)Nc1c(Cl)ccc(C(=O)C2=C(O)CCCC2=O)c1Cl [Example 1-142] | (I-2) logP = 2.37^a) | – |
| O=C1CCCC(O)=C1C(=O)c1ccc(Cl)c(NC(=O)C2=NOCC2)c1Cl [Example 1-145] | (I-2) logP = 2.02^a) | – |
| O=C1CCCC(O)=C1C(=O)c1ccc(Cl)c(NC(=O)c2ccco2)c1Cl [Example 1-147] | (I-2) logP = 2.08^a) | – |
| O=C1CCCC(O)=C1C(=O)c1ccc(Cl)c(NC(=O)c2ccc(Cl)cc2)c1Cl [Example 1-150] | (I-2) logP = 2.96^a) | – |
| O=C1CCCC(O)=C1C(=O)c1ccc(Cl)c(NC(=O)N2CCCO2)c1Cl [Example 1-151] | (I-2) logP = 1.93^a) | – |
| CON(C)C(=S)Nc1c(Cl)ccc(C(=O)C2=C(O)CCCC2=O)c1Cl [Example 1-159] | (I-2) logP = 2.28^a) | – |
| O=C(Nc1c(Cl)ccc(C(=O)C2=C(O)CCCC2=O)c1Cl)NN1CCCCC1 [Example 1-160] | (I-2) logP = 2.52^a) | – |
| CON(C)C(=O)Nc1c(Cl)ccc(C(=O)C2=C(Sc3ccccc3)CCCC2=O)c1Cl [Example 1-161] | (I-2) Y = SC6H5 logP = 2.98^a) | – |
| Cn1ccsc1=NC(=O)Nc1c(Cl)ccc(C(=O)C2=C(O)CCCC2=O)c1Cl [Example 1-162] | (I-2) logP = 1.96^a) | – |
| CCn1ccsc1=NC(=O)Nc1c(Cl)ccc(C(=O)C2=C(O)CCCC2=O)c1Cl [Example 1-163] | (I-2) logP = 2.22^a) | – |
| O=C1CCCC(O)=C1C(=O)c1ccc(Cl)c(NC(=O)N2CCCCO2)c1Cl [Example 1-164] | (I-2) logP = 2.17^a) | – |
| CCCN(CC)C(=O)Nc1c(Cl)ccc(C(=O)C2=C(O)CCCC2=O)c1Cl [Example 1-165] | (I-2) logP = 2.56^a) | – |

| Compound | logP [1, 3] | also measured |
| --- | --- | --- |
| CC(C)N(C)C(=O)Nc1c(Cl)ccc(C(=O)C2=C(O)CCCC2=O)c1Cl [Example 1-166] | (I-2) logP = 2.17^a) | – |
| CCON(C)C(=O)Nc1c(Cl)ccc(C(=O)C2=C(O)CCCC2=O)c1Cl [Example 1-167] | (I-2) logP = 2.30^a) | – |
| CC(C)(C)NC(=O)Nc1c(Cl)ccc(C(=O)C2=C(O)CCCC2=O)c1Cl [Example 1-168] | (I-2) logP = 2.41^a) | – |
| CCN(C(=O)Nc1c(Cl)ccc(C(=O)C2=C(O)CCCC2=O)c1Cl)C(C)C [Example 1-169] | (I-2) logP = 2.49^a) | – |
| CCN(C)C(=O)Nc1c(Cl)ccc(C(=O)C2=C(O)CCCC2=O)c1Cl [Example 1-170] | (I-2) logP = 1.91^a) | – |
| O=C(NCC1CC1)Nc1c(Cl)ccc(C(=O)C2=C(O)CCCC2=O)c1Cl [Example 1-171] | (I-2) logP = 2.05^a) | – |
| COCCCNC(=O)Nc1c(Cl)ccc(C(=O)C2=C(O)CCCC2=O)c1Cl [Example 1-172] | (I-2) logP = 1.72^a) | – |
| CCCN(C)C(=O)Nc1c(Cl)ccc(C(=O)C2=C(O)CCCC2=O)c1Cl [Example 1-173] | (I-2) logP = 2.22^a) | – |
| CON(C)C(=O)Nc1c(Cl)ccc(C(=O)C2=C(O)C(C)(C)CCC2=O)c1Cl [Example 2-1] | – | logP [1, 2]: (I-2) logP = 2.61^a) |
| CC1(C)CCC(=O)C(C(=O)c2ccc(Cl)c(NC(=O)N3CCCO3)c2Cl)=C1O [Example 2-61] | – | logP [1, 2]: (I-2) logP = 2.57^a) |
| CC1(C)CCC(=O)C(C(=O)c2ccc(Cl)c(NC(=O)N3CCCCO3)c2Cl)=C1O [Example 2-69] | – | logP [1, 2]: (I-2) logP = 2.83^a) |
| CON(C)C(=O)Nc1c(Cl)ccc(C(=O)C2=C(O)CC(C)(C)CC2=O)c1Cl [Example 4-1] | – | logP [1, 2]: (I-2) logP = 2.54^a) |
| CC1(C)CC(=O)C(C(=O)c2ccc(Cl)c(NC(=O)N3CCCCO3)c2Cl)=C(O)C1 [Example 4-69] | – | logP [1, 2]: (I-2) logP = 2.76^a) |
| CON(C)C(=O)Nc1c(Cl)ccc(C(=O)C2=C(O)C3CCC(C3)C2=O)c1Cl (centres unmarked) [Example 5-1] | – | logP ([1]; 0.1% aqueous phosphoric acid/acetonitrile gradient, reversed-phase HPLC C 18, 43° C.): (I-2) logP = 2.23^a) |
| COC(=O)c1ccc(Cl)c(NC(=O)N2CCOCC2)c1Cl [IIIa-6] | logP = 1.34^a) | – |
| COC(=O)c1ccc(Cl)c(NC(=O)NN(C)C)c1Cl [IIIa-7] | logP = 1.64^a) | – |
| COC(=O)c1ccc(Cl)c(NC(=O)N2CCN(C)CC2)c1Cl [IIIa-8] | logP = 0.50^a) | – |
| CCN(CC)C(=O)Nc1c(Cl)ccc(C(=O)OC)c1Cl [IIIa-9] | logP = 2.02^a) | – |
| COC(=O)c1ccc(C(F)(F)F)cc1NC(=O)N(C)OC [IIIa-10] | logP = 3.35^a) | – |
| COC(=O)c1ccc(C(F)(F)F)cc1NC(=O)N1CCN(C)C1=O [IIIa-11] | logP = 2.76^a) | – |
| CCN(CC)C(=O)Nc1cc(C(F)(F)F)ccc1C(=O)OC [IIIa-17] | logP = 3.10^a) | – |
| COC(=O)c1ccc(Cl)c(NC(=O)N2CCCN(CC(C)C)C2=O)c1Cl [IIIa-21] | logP = 3.43^a) | – |
| COC(=O)c1ccc(Cl)c(NC(=O)Nn2cnnc2)c1Cl [IIIa-25] | logP = 0.93^a) | – |

Source: patent publication US7670991B2, “Substituted benzoylcyclohexenones and their use as herbicidal agents” (Bayer CropScience AG, priority 2001, dated 2010)
